The values that follow come from patent US11851449B2, “Heterocyclic amide compounds having an RORvt inhibitory action” (TAKEDA PHARMACEUTICAL COMPANY LIMITED, priority 2013, dated 2023).

The target in assay [1] is T1, RORγt (Homo sapiens, UniProt P51449).
T1 sequence (P51449 1-497 isoform P51449-2): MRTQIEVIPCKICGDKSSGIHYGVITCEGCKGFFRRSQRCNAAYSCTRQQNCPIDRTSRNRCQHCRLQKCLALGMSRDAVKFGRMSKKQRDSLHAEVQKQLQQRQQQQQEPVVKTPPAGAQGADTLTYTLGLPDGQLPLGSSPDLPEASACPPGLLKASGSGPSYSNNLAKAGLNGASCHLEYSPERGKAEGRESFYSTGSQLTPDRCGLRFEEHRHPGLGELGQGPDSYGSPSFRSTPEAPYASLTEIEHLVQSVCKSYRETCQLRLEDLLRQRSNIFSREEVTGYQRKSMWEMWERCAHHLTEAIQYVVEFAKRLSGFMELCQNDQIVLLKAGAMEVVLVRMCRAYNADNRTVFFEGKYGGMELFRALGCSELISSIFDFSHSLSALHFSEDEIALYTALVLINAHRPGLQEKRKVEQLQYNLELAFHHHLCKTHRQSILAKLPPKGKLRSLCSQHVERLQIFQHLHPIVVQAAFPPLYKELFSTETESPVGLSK
The assay is described as follows: RORγt binding test (TR-FRET, fluorescent-labeled cholesterol). As to conditions: read-out: binding inhibitory rate (%) of fluorescent-labeled cholesterol to RORγt at test compound 1 μM. The procedure:
The binding activity of the test compound to RORγt was measured by a time resolved fluorescence resonance energy transfer method (TR-FRET) utilizing histidine-tagged RORγt, fluorescent-labeled cholesterol (BODIPY-cholesterol, AVIVA), and terbium-labeled anti-histidine tag antibody (Invitrogen). First, a test compound diluted with an assay buffer (20 mM Tris-HCl (pH 7.5), 100 mM NaCl, 1 mM DTT, 0.1% BSA) was added to a 384 well plate by 3 μL. Then, RORγt diluted with an assay buffer to 240 nM was added by 3 μL, after which fluorescent-labeled cholesterol diluted with the assay buffer to 12 μM was added by 3 μL, and the mixture was stood at room temperature for 20 min. Thereafter, a terbium-labeled anti-histidine tag antibody diluted with the assay buffer to 8 nM was added by 3 μL. The mixture was stood at room temperature for 20 min, and fluorescence intensity (excitation wavelength 320 nm, fluorescence wavelength 520 nm, delay time 100 microseconds) was measured by Envision (PerkinElmer).

The target in assay [2] is T1, RORγt. The assay is described as follows: Cofactor recruitment test (Alpha Screen, biotinylated SRC-1 peptide). The format is biochemical. The following applies: read-out: signal value inhibitory rate (%) at test compound 1 μM. On the procedure: Cofactor Recruitment Test
Cofactor recruitment test was performed by Alpha Screen (Histidine Detection Kit, PerkinElmer) method. First, a test compound was diluted with an assay buffer (50 mM Tris-HCl (pH 7.5), 50 mM KCl, 1 mM DTT, 0.1% BSA) and added to a 384 well plate by 5 μL. […] The mixture was stood in a dark place for 1 hr, and the signal value was measured by Envision (PerkinElmer).

Assay [3] has as its target T1, RORγt. Put plainly: Jurkat reporter test (human IL-17 ROR response element luciferase reporter). The class given is cell-based. The following applies: read-out: luminescence level inhibitory rate (%) at test compound 3 μM. On the procedure: The Jurkat cells used for the reporter test were cultured in a culture medium (RPMI (Invitrogen), 10% FCS (AusGeneX), 100 U/mL penicillin, 100 μg/mL streptomycin). On the day of the test, 4×10^7 cells were recovered by a centrifugal operation (1000 rpm, 5 min.) and suspended in PBS (phosphate buffered saline) (Invitrogen). Thereafter, the cells were recovered again by a centrifugal operation, and suspended in 2 mL of R buffer (NEON transfection kit, Invitrogen). […] Gene transfer was performed by Electroporation apparatus (NEON, Invitrogen) under the conditions of pulse voltage 1350 V, interval 10 milliseconds, number of times 3. The cells after gene transfer were suspended in 40 mL of a reaction medium (RPMI, 10% Lipid reduced FCS (HyClone), 10 mM HEPES (pH 7.5), 100 U/mL penicillin, 100 μg/mL streptomycin, 5 μM lovastatin), and plated in a 96 well plate by 90 μL. A test compound diluted with the reaction medium was added by 10 μL, and the cells were cultured overnight in an incubator. Bright-Glo (Promega) was added by 100 μL, and the mixture was stirred at room temperature for 10 min, and the luminescence level was measured by Envision (PerkinElmer).

Setting [4] is: test compound 3 μM, Jurkat cells.

Structures are written as SMILES. Where two headings read alike, the source gives them in different places.

`Cn1ncc2cc(C(NC(=O)[C@@H]3CNC(=O)C3)C(=O)Nc3ccc([Si](C)(C)C)c(F)c3)ccc21` (mixture of isomers) [Example 109, (3S)—N-(2-((3-fluoro-4-(trimethylsilyl)phenyl)amino)-1-(1-methyl-1H-indazol-5-yl)-2-oxoethyl)-5-oxopyrrolidine-3-carboxamide]: the inhibition at 1 µM at RORγt [1] is 100%; on RORγt [2], 87.6%. In addition, the inhibition at 3 µM at RORγt [3] (Jurkat) was determined as 100%.
As to `COCc1ccc(C(NC(=O)[C@@H]2CNC(=O)C2)C(=O)Nc2ccc(CC(C)(C)C)c(F)c2)cc1` (mixture of isomers) [Example 110, (3S)—N-(2-((4-(2,2-dimethylpropyl)-3-fluorophenyl)amino)-1-(4-(methoxymethyl)phenyl)-2-oxoethyl)-5-oxopyrrolidine-3-carboxamide], the results for the inhibition at 1 µM at RORγt [1] and at RORγt [2] were 99.6% and 71.1%, respectively. Also, the inhibition at 3 µM on RORγt [3] (setting [4]) amounted to 95.4%.
The corresponding values for `CC(C)(C)c1ccc(NC(=O)[C@H](NC(=O)C(O)C(F)(F)F)C2CCOCC2)cc1Cl` (single isomer, unassigned) [Example 11] are 102%, 32% and 97.5%.
The matching figures for `COCc1ccc([C@@H](NC(=O)C2CNC(=O)C2)C(=O)Nc2ccc(CC(C)(C)C)c(F)c2)cc1` (stereo in doubt) [Example 115, (3S)-N-((1R)-2-((4-(2,2-dimethylpropyl)-3-fluorophenyl)amino)-1-(4-(methoxymethyl)phenyl)-2-oxoethyl)-5-oxopyrrolidine-3-carboxamide]: 102%, 71.6% and 97.3%.
With `C[Si](C)(C)c1c(F)cc(NC(=O)C(NC(=O)Cn2cnccc2=O)C2CCOCC2)cc1F` (stereo not drawn) [Example 1, N-(3,5-difluoro-4-(trimethylsilyl)phenyl)-2-(((6-oxopyrimidin-1(6H)-yl)acetyl)amino)-2-(tetrahydro-2H-pyran-4-yl)acetamide], the inhibition at 1 µM on RORγt [1] stood at 100%; at RORγt [2] it was 72.7%. For the same molecule, the inhibition at 3 µM on RORγt [3] (Jurkat) turned out to be 97.3%.
Take `Cc1nnc(CC(=O)NC(C(=O)Nc2cc(F)c([Si](C)(C)C)c(F)c2)C2CCOCC2)o1` (stereo not drawn) [Example 2, N-(3,5-difluoro-4-(trimethylsilyl)phenyl)-2-(((5-methyl-1,3,4-oxadiazol-2-yl)acetyl)amino)-2-(tetrahydro-2H-pyran-4-yl)acetamide]: the inhibition at 1 µM on RORγt [1] was determined as 102%; at RORγt [2], 78%. Further, the inhibition at 3 µM at RORγt [3] (Jurkat) was 98.1%.
The corresponding values for `C[Si](C)(C)c1c(F)cc(NC(=O)[C@H](NC(=O)c2cc(O)no2)C2CCOCC2)cc1F` [Example 3, N-((1R)-2-((3,5-difluoro-4-(trimethylsilyl)phenyl)amino)-2-oxo-1-(tetrahydro-2H-pyran-4-yl)ethyl)-3-hydroxy-1,2-oxazole-5-carboxamide] are 100%, 72.3% and 98.4%.
The matching figures for `C[Si](C)(C)c1ccc(NC(=O)C(NC(=O)c2cc(O)no2)C2CCC(F)(F)CC2)cc1F` (stereo not drawn) [Example 4, N-(1-(4,4-difluorocyclohexyl)-2-((3-fluoro-4-(trimethylsilyl)phenyl)amino)-2-oxoethyl)-3-hydroxy-1,2-oxazole-5-carboxamide]: 100%, 78.8% and 97%.
The matching figures for `C[Si](C)(C)c1ccc(NC(=O)C(NC(=O)[C@@H]2CNC(=O)C2)C2CCC(F)(F)CC2)cc1F` (stereo partly drawn) [Example 5, (3S)—N-(1-(4,4-difluorocyclohexyl)-2-((3-fluoro-4-(trimethylsilyl)phenyl)amino)-2-oxoethyl)-5-oxopyrrolidine-3-carboxamide]: 100%, 84.8% and 98%.
`CN(C(=O)c1cc(O)no1)C(C(=O)Nc1cc(F)c([Si](C)(C)C)c(F)c1)C1CCOCC1` (stereo not drawn) [Example 6, N-(2-((3,5-difluoro-4-(trimethylsilyl)phenyl)amino)-2-oxo-1-(tetrahydro-2H-pyran-4-yl)ethyl)-3-hydroxy-N-methyl-1,2-oxazole-5-carboxamide]: the inhibition at 1 µM at RORγt [1] was 102%; at RORγt [2], 99.4%. On RORγt [3] (Jurkat), the inhibition at 3 µM is 101%.
Consider `CC(C)(C)c1ccc(NC(=O)[C@H](NC(=O)[C@@H]2CNC(=O)C2)C2CCC(F)(F)CC2)cc1F` [Example 7, (3S)—N-((1R)-2-((4-tert-butyl-3-fluorophenyl)amino)-1-(4,4-difluorocyclohexyl)-2-oxoethyl)-5-oxopyrrolidine-3-carboxamide], for which the results for the inhibition at 1 µM on RORγt [1] and on RORγt [2] were 102% and 56.9%, respectively. In addition, at RORγt [3] (setting [4]), the inhibition at 3 µM was found to be 97%.
Turning to `CC(C)(C)c1ccc(NC(=O)[C@H](NC(=O)C2CNC(=O)O2)C2CCC(F)(F)CC2)cc1F` (stereo partly drawn) [Example 8, N-((1R)-2-((4-tert-butyl-3-fluorophenyl)amino)-1-(4,4-difluorocyclohexyl)-2-oxoethyl)-2-oxo-1,3-oxazolidine-5-carboxamide], the inhibition at 1 µM turned out to be 102% on RORγt [1] and 49.1% at RORγt [2]. For the same molecule, on RORγt [3] (setting [4]), the inhibition at 3 µM was 93.4%.
The matching figures for `CC(C)(C)c1ccc(NC(=O)[C@H](NC(=O)CC(F)(F)F)C2CCOCC2)cc1Cl` [Example 9, N-((1R)-2-((4-tert-butyl-3-chlorophenyl)amino)-2-oxo-1-(tetrahydro-2H-pyran-4-yl)ethyl)-3,3,3-trifluoropropanamide]: 100%, 29.7% and 97.6%.
As to `CC(C)(C)c1ccc(NC(=O)[C@H](NC(=O)[C@@H](O)C(F)(F)F)C2CCOCC2)cc1Cl` [Example 10, N-((1R)-2-((4-tert-butyl-3-chlorophenyl)amino)-2-oxo-1-(tetrahydro-2H-pyran-4-yl)ethyl)-3,3,3-trifluoro-2-hydroxypropanamide], the inhibition at 1 µM on RORγt [1] worked out at 102%; on RORγt [2], 2.04%. Further, the inhibition at 3 µM on RORγt [3] (setting [4]) was 95.3%.
Regarding `COc1ccc(C(NC(=O)C2CNC(=O)C2)C(=O)Nc2ccc([Si](C)(C)C)cc2)cc1` (stereo not drawn) [Example 13, N-(1-(4-methoxyphenyl)-2-oxo-2-((4-(trimethylsilyl)phenyl)amino)ethyl)-5-oxopyrrolidine-3-carboxamide], the results for the inhibition at 1 µM on RORγt [1] and at RORγt [2] were 101% and 51.1%, respectively. Moreover, on RORγt [3] (Jurkat), the inhibition at 3 µM stood at 92.6%.
The corresponding values for `COc1ccc(C(C(=O)Nc2ccc([Si](C)(C)C)c(F)c2)N(C)C(=O)c2cc(O)no2)cc1` (stereo not drawn) [Example 15, N-(2-((3-fluoro-4-(trimethylsilyl)phenyl)amino)-1-(4-methoxyphenyl)-2-oxoethyl)-3-hydroxy-N-methyl-1,2-oxazole-5-carboxamide] are 109%, 91.6% and 99.4%.
The matching figures for `COc1ccc(C(NC(=O)Cc2ccc(=O)[nH]c2)C(=O)Nc2ccc([Si](C)(C)C)cc2)cc1` (stereo not drawn) [Example 16, 2-(4-methoxyphenyl)-2-(((6-oxo-1,6-dihydropyridin-3-yl)acetyl)amino)-N-(4-(trimethylsilyl)phenyl)acetamide]: 102%, 81.9% and 93.2%.
